ChEMBL document CHEMBL1201862, “PubChem BioAssay data set” (2004)
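Cultured in 96-well plates, cells were exposed to test compound for 48 hours across five concentrations. Here, GI50 denotes the concentration required for 50% inhibition of growth.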 Activity calls are given as the source filed them. Cut-off read from the data, not from the text of the source: active = GI50 up to about 1.1 µM and inactive = higher.

Tests used:
Experiment in all cases: NCI tumour cell line growth inhibition, 48 h
[1] = tested on: CCRF-CEM
[2] = tested on: OVCAR-5
[3] = tested on: SK-MEL-28
[4] = tested on: RPMI-8226
[5] = tested on: SK-MEL-5
[6] = tested on: NCI-H226
[7] = tested on: T47D
[8] = tested on: MDA-N
[9] = tested on: NCI-H460
[10] = tested on: SF-539
[11] = tested on: NCI-H23
[12] = tested on: SNB-75
[13] = tested on: SK-OV-3
[14] = tested on: MOLT-4
[15] = tested on: MDA-MB-435
[16] = tested on: IGROV-1
[17] = tested on: SNB-19
[18] = tested on: PC-3
[19] = tested on: M14
[20] = tested on: UO-31
[21] = tested on: SR
[22] = tested on: SF-268
[23] = tested on: NCI/ADR-RES
[24] = tested on: A549
[25] = tested on: MCF7
[26] = tested on: SK-MEL-2
[27] = tested on: KM12
[28] = tested on: ACHN
[29] = tested on: CAKI-1
[30] = tested on: A498
[31] = tested on: OVCAR-8
[32] = tested on: NCI-H522
[33] = tested on: HL-60
[34] = tested on: SW-620
[35] = tested on: 786-0
[36] = tested on: HT-29
[37] = tested on: TK-10
[38] = tested on: OVCAR-4
[39] = tested on: COLO 205
[40] = tested on: DU-145
[41] = tested on: MDA-MB-231
[42] = tested on: OVCAR-3
[43] = tested on: LOX IMVI
[44] = tested on: HCT-116
[45] = tested on: EKVX
[46] = tested on: SF-295
[47] = tested on: SN12C
[48] = tested on: U-251
[49] = tested on: RXF 393
[50] = tested on: UACC-257
[51] = tested on: HCT-15
[52] = tested on: Hs-578T
[53] = tested on: K562
[54] = tested on: UACC-62
[55] = tested on: HOP-92
[56] = tested on: HOP-62
[57] = tested on: HCC 2998
[58] = tested on: Malme-3M
[59] = tested on: BT-549

Measured: GI50

C=C1C(O)C[C@H](OC(C)=O)[C@]2(C)C1C(OC(C)=O)[C@]1(C(C)(C)O)CC(O)C(C)=C1[C@@H](OC(=O)c1ccccc1)C2OC(C)=O (stereo partly specified)
inactive: [1] > 10 µM | [2] > 10 µM | [3] > 10 µM | [4] > 10 µM | [5] > 10 µM | [6] > 10 µM | [7] > 10 µM | [8] > 10 µM | [9] > 10 µM | [10] > 10 µM | [11] > 10 µM | [12] > 10 µM | [13] > 10 µM | [14] > 10 µM | [15] > 10 µM | [16] > 10 µM | [17] > 10 µM | [18] > 10 µM | [19] > 10 µM | [20] > 10 µM | [21] > 10 µM | [22] > 10 µM | [23] > 10 µM | [24] > 10 µM | [25] > 10 µM | [26] > 10 µM | [27] > 10 µM | [28] > 10 µM | [29] > 10 µM | [30] > 10 µM | [31] > 10 µM | [32] > 10 µM | [33] > 10 µM | [34] > 10 µM | [35] > 10 µM | [36] > 10 µM | [37] > 10 µM | [38] > 10 µM | [39] > 10 µM | [40] > 10 µM | [41] > 10 µM | [42] > 10 µM | [43] > 10 µM | [44] > 10 µM | [45] > 10 µM | [46] > 10 µM | [47] > 10 µM | [48] > 10 µM | [49] > 10 µM | [50] > 10 µM | [52] > 10 µM | [53] > 10 µM | [54] > 10 µM | [55] > 10 µM
> 10 µM: [51]

N/N=C(\N)SCc1ccc(N=C=S)cc1
inactive: [1] > 100 µM | [2] > 100 µM | [3] > 100 µM | [4] > 100 µM | [5] > 100 µM | [56] > 100 µM | [7] > 100 µM | [8] > 100 µM | [9] > 100 µM | [10] > 100 µM | [11] > 100 µM | [57] > 100 µM | [12] > 100 µM | [13] > 100 µM | [14] > 100 µM | [15] > 100 µM | [16] > 100 µM | [17] > 100 µM | [18] > 100 µM | [20] > 100 µM | [21] > 100 µM | [22] > 100 µM | [23] > 100 µM | [24] > 100 µM | [26] > 100 µM | [27] > 100 µM | [28] > 100 µM | [29] > 100 µM | [30] > 100 µM | [31] > 100 µM | [58] > 100 µM | [32] 5.9 µM | [33] > 100 µM | [34] > 100 µM | [35] > 100 µM | [36] > 100 µM | [37] > 100 µM | [38] > 100 µM | [39] > 100 µM | [40] > 100 µM | [41] > 100 µM | [43] > 100 µM | [44] > 100 µM | [45] > 100 µM | [46] > 100 µM | [47] > 100 µM | [48] > 100 µM | [49] > 100 µM | [50] > 100 µM | [52] > 100 µM | [53] > 100 µM | [54] > 100 µM | [55] > 100 µM
> 100 µM: [51]

BrC(c1cccc2ccccc12)c1cccc2ccccc12
17.7 µM: [51]
inactive: [2] 27.1 µM | [3] 19.5 µM | [4] > 100 µM | [5] 17.5 µM | [56] 14.1 µM | [6] 17.2 µM | [7] 29.4 µM | [8] 15.1 µM | [9] 15.9 µM | [11] 19.9 µM | [12] 13.5 µM | [14] > 100 µM | [15] 7.23 µM | [16] 13.8 µM | [17] 43.4 µM | [18] 22.1 µM | [19] 17.3 µM | [20] 26.8 µM | [21] > 100 µM | [22] 12.1 µM | [23] 16.5 µM | [24] 26.4 µM | [26] 14.9 µM | [27] 15.5 µM | [28] 21.9 µM | [29] 22.2 µM | [30] 17.6 µM | [31] 17.3 µM | [58] 4.94 µM | [32] 10.9 µM | [33] 20 µM | [34] 16.7 µM | [35] 13.7 µM | [36] 18.3 µM | [37] 29 µM | [38] 17 µM | [40] 13.6 µM | [41] 13.8 µM | [42] 11.9 µM | [43] 15.8 µM | [44] 6.61 µM | [45] 16.7 µM | [59] 21.4 µM | [46] 25.5 µM | [47] 14.3 µM | [48] 16.9 µM | [49] 13.6 µM | [50] 19.2 µM | [53] > 100 µM | [54] 14.6 µM | [55] 13.5 µM
